Test results reported in US12422443B2, “Amino-substituted chromenoquinoline-based fluorescent marker, and preparation and use thereof” (SOOCHOW UNIVERSITY, priority 2021, dated 2025).

What was measured:
[1] = test system: lipid droplets in Hela cells; assay: Lipid droplet labeling, colocalized confocal imaging with Nile Red in Hela cells; type: cell-based; conditions: 5 min; for lipid droplet labeling ability (in words): 1a and 1b 6 μM, 1c 5 μM, 1d 8 μM
Excerpt: In the following examples, the cells are imaged by laser confocal microscopy, where excitation at 405 nm is employed in the green light channel, and the fluorescence signal in the range of 468-550 nm is collected; and excitation at 561 nm is employed in the red light channel, and the fluorescence signal in the range of 570-750 nm is collected.
To test the fluorescent labeling ability of the fluorescent marker 1a compared with a commercial lipid droplet marker, the fluorescent marker 1a was prepared into a stock solution in dimethyl sulfoxide, and then added to a conventional cell culture medium, to give a concentration of the fluorescent marker 1a in the cell culture medium of 6 μM. Subsequently, Nile Red (100 nM), a lipid droplet red marker, was added and co-incubated with Hela cells in an incubator at saturated humidity, 37° C., and 5% CO2 for 5 min (the same below); The cells were washed three times with a PBS buffer, and imaged by laser confocal microscopy, where excitation at 405 nm was employed in the green light channel, and the fluorescence signal in the range of 468-550 nm was collected; and excitation at 561 nm was employed in the red light channel, and the fluorescence signal in the range of 570-750 nm was collected. The results are shown in FIG. 5, in which (a) is the bright field, (b) is the cell image with the fluorescent marker 1a, (c) is the cell image with the lipid droplet Red marker, (d) is overlapped image of the green light channel and the red light channel, (e) is the fluorescence intensity of the ROI line in the overlapped image, and (f) is the colocalization assay, where the colocalization coefficient is 0.95.
To verify the labeling effect of the fluorescent marker 1b (6 μM) on lipid droplets in Hela cells, the same experimental method as that with the fluorescent marker 1a was used.
The experimental method with the fluorescent marker 1c (5 μM) was the same as that with the fluorescent marker 1a.
To verify whether Compound 1d can be used in fluorescence imaging of lipid droplets in Hela cells just as the probes 1a-1c do, a cell assay was carried out. The fluorescent marker 1d was prepared into a stock solution in dimethyl sulfoxide, and then added to a conventional cell culture medium, to give a concentration of the fluorescent marker 1d in the cell culture medium of 8 μM. The Hela cells were co-incubated in an incubator at saturated humidity, 37° C., 5% CO2 for 5 min. The cells were washed three times with a PBS buffer, and imaged by laser confocal microscopy, where excitation at 405 nm was employed in the green light channel, and the fluorescence signal in the range of 468-550 nm was collected. […] The results are shown in FIG. 5, in which(s) is the bright field, (t) is the cell image with the fluorescent marker 1d, (u) is the cell image with the lipid droplet Red marker, (v) is overlapped image of the green light channel and the red light channel, (w) is the fluorescence intensity of the ROI line in the overlapped image, and (x) is the colocalization assay, where the colocalization coefficient is 0.90.

[2] = Ultraviolet absorption and fluorescence emission in dichloromethane; type: physicochemical; conditions: 10 μM in dichloromethane; for highest fluorescence intensity (emission wavelength): excitation 428 nm (1a), 407 nm (1b), 461 nm (1c), 430 nm (1d), slit 3 nm/3 nm (1d: 5 nm/3 nm)
Description: The ultraviolet absorption and fluorescence emission performances of the dyes 1a-1d prepared above (at a concentration of 10 μM) in dichloromethane were tested. The horizontal ordinate is the wavelength, and the vertical ordinate is the absorbance and fluorescence intensity, respectively.
The ultraviolet absorption and fluorescence emission spectra of the fluorescent marker 1a (at a concentration of 10 μM) in dichloromethane are shown in FIG. 3. The fluorescent marker 1a has the maximum absorption at 452 nm (FIG. 3 (a)); and the fluorescent marker 1a has the highest fluorescence intensity at 532 nm (FIG. 3 (e)), where the excitation wavelength is 428 nm, and the slit width is 3 nm/3 nm.
The ultraviolet absorption and fluorescence emission spectra of the fluorescent marker 1b (at a concentration of 10 μM) in dichloromethane are shown in FIG. 3. The fluorescent marker 1b has the maximum absorption at 473 nm (FIG. 3 (b)); and the fluorescent marker 1b has the highest fluorescence intensity at 562 nm (FIG. 3 (f)), where the excitation wavelength is 407 nm, and the slit width is 3 nm/3 nm.
The ultraviolet absorption and fluorescence emission spectra of the fluorescent marker 1c (at a concentration of 10 μM) in dichloromethane are shown in FIG. 3. The fluorescent marker 1c has the maximum absorption at 375 nm (FIG. 3 (c)); and the fluorescent marker 1c has the highest fluorescence intensity at 546 nm (FIG. 3 (g)), where the excitation wavelength is 461 nm, and the slit width is 3 nm/3 nm.
The ultraviolet absorption and fluorescence emission spectra of the fluorescent marker 1d (at a concentration of 10 μM) in dichloromethane are shown in FIG. 3. The fluorescent marker 1d has the maximum absorption at 429 nm (FIG. 3 (d)); and the fluorescent marker 1d has the highest fluorescence intensity at 495 nm (FIG. 3 (h)), where the excitation wavelength is 430 nm, and the slit width is 5 nm/3 nm.

[3] = Photostability under iodine-tungsten lamp irradiation (residual absorptivity); type: physicochemical; conditions: 10 μM in acetonitrile, 500 W iodine-tungsten lamp at 25 cm, 6 hrs irradiation
Description: The photostability of the above prepared dyes 1a-1d was tested (at a concentration of 10 μM). Dyes 1a-1d and the reference substance Cy7 of corresponding weights were weighed, and respectively dissolved in acetonitrile (at a concentration of 10 μM). All samples were irradiated with a Philips iodine-tungsten lamp (500 W), where the distance between the lamp and the sample was set to 25 cm. An 8 cm-thick sodium nitrite (60 g per liter) cold trap was placed between the lamp and the sample, to eliminate the heat and short-wavelength light. The irradiation was continued for 6 hrs, during which UV and fluorescence were performed every half hour. After six hours, the light stability was measured by residual absorptivity calculated based on the change in the absorption intensity at various times before and after the irradiation. […] It can be seen that dyes 1a-1d have higher photostability compared to cyanine dyes.

[4] = test system: mitochondria in Hela cells; assay: Mitochondria labeling, colocalized confocal imaging with CMA Ros in Hela cells; type: cell-based
[5] = 6 μM marker with Nile Red (100 nM)

SMILES	colocalization coefficient [1, 5]	lipid droplet labeling ability (in words) [1]	maximum absorption [2] [nm]	highest fluorescence intensity (emission wavelength) [2] [nm]	photostability (residual absorptivity) [3] [%]	colocalization coefficient ([1]; 5 μM marker with Nile Red (100 nM))	mitochondria labeling ability (in words) ([4]; 8 μM)	colocalization coefficient ([4]; 8 μM marker with CMA Ros (100 nM))
CCN(CC)c1ccc2nc3c(cc2c1)c(=O)oc1ccccc13 [1a]	0.95	has lipid droplet labeling ability in Hela cells	452	532	46	–	–	–
CCN(CC)c1ccc2nc3c(cc2c1)c(=O)oc1cc(N(CC)CC)ccc13 [1b]	0.97	good targeting ability to lipid droplets in Hela cells	473	562	43	–	–	–
CCN(CC)c1ccc2c(c1)oc(=O)c1cc3ccc4ccccc4c3nc12 [1c]	–	good targeting ability to lipid droplets in Hela cells	375	546	76	0.85	–	–
CCN(CC)c1ccc2c(c1)oc(=O)c1cc3c(ccc4nc5c(cc43)c(=O)oc3cc(N(CC)CC)ccc35)nc12 [1d]	–	does not stain the lipid droplets in the cells	429	495	71	–	has the ability to label mitochondria	0.90
